Key:
Type in all cases: in vivo
[1] = test system: Amaranthus retroflexus (AMARE); experiment: Post-emergence herbicidal action, greenhouse pot test; conditions: rated visually after about 3 weeks vs untreated controls, 100% = plants have died
Summary of the method: (§1)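 Greenhouse-grown weeds in sandy loam were sprayed post-emergence at the one-leaf stage, 2–3 weeks after sowing. Compounds were formulated as WP or EC in water with 0.5% additive at 600 l/ha, at rates of 20 g/ha or less. Visual rating after about 3 weeks used a scale from 0% (like untreated control) to 100% (plants dead).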

[2] = test system: Stellaria media (STEME); experiment: as above
Summary of the method: as §1

[3] = test system: Pharbitis purpurea (PHBPU); experiment: as above
Summary of the method: as §1

[4] = test system: Polygonum convolvulus (POLCO); experiment: as above
Summary of the method: as §1

[5] = test system: Abutilon theophrasti (ABUTH); experiment: as above; conditions: rated visually after about 3 weeks vs untreated controls, 100% = plants have died
Summary of the method: as §1

[6] = test system: Viola tricolor (VIOTR); experiment: as above
Summary of the method: as §1

[7] = test system: Veronica persica (VERPE); experiment: as above
Summary of the method: as §1

[8] = test system: Echinochloa crus-galli (ECHCG); experiment: Post-emergence herbicidal action, greenhouse pot test (also comparative test C)
Summary of the method: (§2)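 Greenhouse pot plants in sandy loam were sprayed post-emergence at the one-leaf stage (2–3 weeks after sowing) with WP or EC formulations plus 0.5% additive at 600 l/ha water. Activity was rated visually after about 3 weeks versus untreated controls (100% = dead, 0% = like control); rates were 20 g/ha or less, and 5 g/ha or less in the comparative test.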

[9] = test system: Matricaria inodora (MATIN); experiment: as above
Summary of the method: as §2

[10] = test system: Setaria viridis (SETVI); experiment: as above
Summary of the method: as §2

[11] = test system: Alopecurus myosuroides (ALOMY); experiment: as above; conditions: rated visually after about 3 weeks vs untreated controls, 100% = plants have died
Summary of the method: as §2

[12] = test system: Triticum aestivum (TRZAS); experiment: Post-emergence crop plant compatibility, greenhouse pot test; conditions: 1.25 g/ha, vs untreated controls
Summary of the method: (§3)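 Crop plants grown in sandy loam in the greenhouse were sprayed post-emergence at the one-leaf stage, 2–3 weeks after sowing, with WP or EC formulations as aqueous suspension/emulsion plus 0.5% additive at 600 l/ha. Damage was rated visually about 3 weeks later versus untreated controls (0% = like control, 100% = plants dead).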

[13] = test system: Brassica napus (BRSNW); experiment: as above; conditions: for Post-emergence action against BRSNW (crop plant compatibility): vs untreated controls; for Post-emergence action at 5 g/ha against BRSNW in %: crop plant compatibility, observed effects on crop plant in comparison to untreated controls
Summary of the method: as §3

[14] = test system: Glycine max (GLXMA); experiment: as above
Summary of the method: as §3

[15] = test system: Oryza sativa (ORYSA); experiment: Post-emergence crop plant compatibility, greenhouse pot test (also comparative test C); conditions: for Post-emergence action against ORYSA (crop plant compatibility): vs untreated controls
Summary of the method: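 Rice and other crops sprayed post-emergence at one-leaf stage (2–3 weeks after sowing) with WP or EC formulations plus 0.5% additive at 600 l/ha water. Visual rating about 3 weeks later versus untreated controls (100% = dead, 0% = like control); suffixes a–c denote different doses.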

[16] = test system: Avena fatua (AVEFA); experiment: Post-emergence herbicidal action, greenhouse pot test; conditions: rated visually after about 3 weeks vs untreated controls, 100% = plants have died
Summary of the method: as §1

[17] = test system: Lolium rigidum (LOLRI); experiment: as above; conditions: Lolium rigidum, 504 h, dosage 20 g/ha, read-out: Post-emergence action against LOLRI in %
Summary of the method: as §1

[18] = test system: Zea mays (ZEAMX); experiment: Post-emergence crop plant compatibility, greenhouse pot test; conditions: 1.25 g/ha, vs untreated controls
Summary of the method: as §3

Compound: COCCOCCOC(=O)C(C)Oc1ccccc1Sc1cc(-n2c(=O)cc(C(F)(F)F)n(C)c2=O)c(F)cc1Cl (racemic) [I.2-23]
- Post-emergence action at 1.25 g/ha against AMARE in % [1]: 80%
- Post-emergence action at 5 g/ha against AMARE in % ([1]; 5 g/ha): 100%
- Post-emergence action at 20 g/ha against AMARE in % ([1]; 20 g/ha): 100%
- Post-emergence action against STEME ([2]; 5 g/ha): 100%
- Post-emergence action against STEME ([2]; 20 g/ha): 100%
- Post-emergence action against PHBPU in % ([3]; dosage 1.25 g/ha): 100%
- Post-emergence action against PHBPU in % ([3]; dosage 5 g/ha): 100%
- Post-emergence action against PHBPU in % ([3]; dosage 20 g/ha): 100%
- Post-emergence action against POLCO in % ([4]; dosage 5 g/ha): 100%
- Post-emergence action against POLCO in % ([4]; dosage 20 g/ha): 100%
- Post-emergence action at 1.25 g/ha against ABUTH in % [5]: 100%
- Post-emergence action at 5 g/ha against ABUTH in % ([5]; 5 g/ha): 100%
- Post-emergence action at 20 g/ha against ABUTH in % ([5]; 20 g/ha): 100%
- Post-emergence action against VIOTR ([6]; 5 g/ha): 100%
- Post-emergence action against VIOTR ([6]; 20 g/ha): 100%
- Post-emergence action against VERPE ([7]; 1.25 g/ha): 80%
- Post-emergence action against VERPE ([7]; 5 g/ha): 100%
- Post-emergence action against VERPE ([7]; 20 g/ha): 100%
- Post-emergence action against ECHCG in % ([8]; dosage 5 g/ha): 100%
- Post-emergence action against ECHCG in % ([8]; dosage 20 g/ha): 100%
- Post-emergence action against MATIN in % ([9]; dosage 5 g/ha): 80%
- Post-emergence action against MATIN in % ([9]; dosage 20 g/ha): 100%
- Post-emergence action against SETVI ([10]; 20 g/ha): 100%
- Post-emergence action against SETVI in % ([10]; dosage 5 g/ha): 100%
- Post-emergence action at 20 g/ha against ALOMY in % ([11]; 20 g/ha): 80%
- Post-emergence action against TRZAS (crop plant compatibility) [12]: 20%
- Post-emergence action against BRSNW (crop plant compatibility) ([13]; 1.25 g/ha): 20%
- Post-emergence action at 5 g/ha against BRSNW in % [13]: 20%
- Post-emergence action against GLXMA in % ([14]; 1.25 g/ha): 0%
- Post-emergence action against GLXMA in % ([14]; 5 g/ha): 10%
- Post-emergence action against GLXMA in % ([14]; 20 g/ha): 20%
- Post-emergence action against ORYSA (crop plant compatibility) ([15]; 1.25 g/ha): 10%
- Post-emergence action against ORYSA (crop plant compatibility) ([15]; 5 g/ha): 10%

Compound: Cn1c(C(F)(F)F)cc(=O)n(-c2cc(Oc3ccccc3OCC(=O)OCC#N)c(Cl)cc2F)c1=O [I.7-176, Cyanomethyl (2-{2-chloro-4-fluoro-5-[3-methyl-2,6-dioxo-4-(trifluoromethyl)-3,6-dihydropyrimidin-1(2H)-yl]phenoxy}phenoxy)acetate]
- pest or weed control at 5 g/ha ([1]; Amaranthus retroflexus, 504 h, 5 g/ha, read-out: Post-emergence action at 5 g/ha against AMARE in %): 100%
- pest or weed control at 20 g/ha ([1]; Amaranthus retroflexus, 504 h, 20 g/ha, read-out: Post-emergence action at 20 g/ha against AMARE in %): 100%
- pest or weed control at 5 g/ha ([3]; Ipomoea purpurea, 504 h, dosage 5 g/ha, read-out: Post-emergence action against PHBPU in %): 100%
- pest or weed control at 20 g/ha ([3]; Ipomoea purpurea, 504 h, dosage 20 g/ha, read-out: Post-emergence action against PHBPU in %): 100%
- Post-emergence action at 5 g/ha against AVEFA in % ([16]; 5 g/ha): 80%
- pest or weed control at 20 g/ha ([16]; Avena fatua, 504 h, 20 g/ha, read-out: Post-emergence action at 20 g/ha against AVEFA in %): 100%
- pest or weed control at 5 g/ha ([4]; Fallopia convolvulus, 504 h, dosage 5 g/ha, read-out: Post-emergence action against POLCO in %): 100%
- pest or weed control at 20 g/ha ([4]; Fallopia convolvulus, 504 h, dosage 20 g/ha, read-out: Post-emergence action against POLCO in %): 100%
- pest or weed control at 5 g/ha ([5]; Abutilon theophrasti, 504 h, 5 g/ha, read-out: Post-emergence action at 5 g/ha against ABUTH in %): 100%
- pest or weed control at 20 g/ha ([5]; Abutilon theophrasti, 504 h, 20 g/ha, read-out: Post-emergence action at 20 g/ha against ABUTH in %): 100%
- pest or weed control at 20 g/ha [17]: 80%
- pest or weed control at 5 g/ha ([6]; Viola tricolor, 504 h, 5 g/ha, read-out: Post-emergence action against VIOTR): 100%
- pest or weed control at 20 g/ha ([6]; Viola tricolor, 504 h, 20 g/ha, read-out: Post-emergence action against VIOTR): 100%
- pest or weed control at 5 g/ha ([7]; Veronica persica, 504 h, 5 g/ha, read-out: Post-emergence action against VERPE): 100%
- pest or weed control at 20 g/ha ([7]; Veronica persica, 504 h, 20 g/ha, read-out: Post-emergence action against VERPE): 100%
- pest or weed control at 5 g/ha ([8]; Echinochloa crus-galli, 504 h, dosage 5 g/ha, read-out: Post-emergence action against ECHCG in %): 100%
- pest or weed control at 20 g/ha ([8]; Echinochloa crus-galli, 504 h, dosage 20 g/ha, read-out: Post-emergence action against ECHCG in %): 100%
- pest or weed control at 5 g/ha ([9]; Tripleurospermum inodorum, 504 h, dosage 5 g/ha, read-out: Post-emergence action against MATIN in %): 90%
- pest or weed control at 20 g/ha ([9]; Tripleurospermum inodorum, 504 h, dosage 20 g/ha, read-out: Post-emergence action against MATIN in %): 100%
- pest or weed control at 20 g/ha ([10]; Setaria viridis, 504 h, 20 g/ha, read-out: Post-emergence action against SETVI): 100%
- pest or weed control at 5 g/ha ([10]; Setaria viridis, 504 h, dosage 5 g/ha, read-out: Post-emergence action against SETVI in %): 100%
- pest or weed control at 5 g/ha ([11]; Alopecurus myosuroides, 504 h, 5 g/ha, read-out: Post-emergence action at 5 g/ha against ALOMY in %): 100%
- pest or weed control at 20 g/ha ([11]; Alopecurus myosuroides, 504 h, 20 g/ha, read-out: Post-emergence action at 20 g/ha against ALOMY in %): 100%
- Post-emergence action at 5 g/ha against BRSNW in % [13]: 20%
- Post-emergence action against BRSNW (crop plant compatibility) ([13]; 20 g/ha): 20%

Compound: CC(Oc1ccccc1Sc1cc(-n2c(=O)cc(C(F)(F)F)n(C)c2=O)c(F)cc1Cl)C(=O)OCCO (racemic) [I.2-58]
- Post-emergence action at 1.25 g/ha against AMARE in % [1]: 90%
- Post-emergence action at 5 g/ha against AMARE in % ([1]; 5 g/ha): 100%
- Post-emergence action at 20 g/ha against AMARE in % ([1]; 20 g/ha): 100%
- Post-emergence action against STEME ([2]; 5 g/ha): 100%
- Post-emergence action against STEME ([2]; 20 g/ha): 100%
- Post-emergence action against PHBPU in % ([3]; dosage 5 g/ha): 80%
- Post-emergence action against PHBPU in % ([3]; dosage 20 g/ha): 100%
- Post-emergence action against POLCO in % ([4]; dosage 1.25 g/ha): 100%
- Post-emergence action against POLCO in % ([4]; dosage 5 g/ha): 100%
- Post-emergence action against POLCO in % ([4]; dosage 20 g/ha): 100%
- Post-emergence action at 1.25 g/ha against ABUTH in % [5]: 100%
- Post-emergence action at 5 g/ha against ABUTH in % ([5]; 5 g/ha): 100%
- Post-emergence action at 20 g/ha against ABUTH in % ([5]; 20 g/ha): 100%
- Post-emergence action against VIOTR ([6]; 1.25 g/ha): 100%
- Post-emergence action against VIOTR ([6]; 5 g/ha): 100%
- Post-emergence action against VIOTR ([6]; 20 g/ha): 100%
- Post-emergence action against VERPE ([7]; 5 g/ha): 80%
- Post-emergence action against VERPE ([7]; 20 g/ha): 100%
- Post-emergence action against MATIN in % ([9]; dosage 5 g/ha): 80%
- Post-emergence action against MATIN in % ([9]; dosage 20 g/ha): 90%
- Post-emergence action against SETVI ([10]; 20 g/ha): 100%
- Post-emergence action against SETVI in % ([10]; dosage 1.25 g/ha): 100%
- Post-emergence action against SETVI in % ([10]; dosage 5 g/ha): 100%
- Post-emergence action at 20 g/ha against ALOMY in % ([11]; 20 g/ha): 80%
- Post-emergence action against ZEAMX (crop plant compatibility) [18]: 10%
- Post-emergence action against BRSNW (crop plant compatibility) ([13]; 1.25 g/ha): 20%
- Post-emergence action against GLXMA in % ([14]; 1.25 g/ha): 10%
- Post-emergence action against GLXMA in % ([14]; 5 g/ha): 10%
- Post-emergence action against ORYSA (crop plant compatibility) ([15]; 1.25 g/ha): 10%
- Post-emergence action against ORYSA (crop plant compatibility) ([15]; 5 g/ha): 10%
- Post-emergence action against ORYSA in % ([15]; 20 g/ha, crop plant compatibility): 20%

Source: patent US20240025862A1, “SUBSTITUTED N-PHENYLURACILS AND SALTS THEREOF, AND USE THEREOF AS HERBICIDAL ACTIVE SUBSTANCES” (Bayer Aktiengesellschaft, priority 2020, published 2024)
